This assay has as its system splenic lymphocytes cultured with C57bl6J derived B16F10 melanoma cells. Nature of the assay: Mixed lymphocyte culture (MLC) screening assay, melanoma cells as stimulators. In kind it is cell-based, mice. To be noted: 3 days of growth; FIG. 4. The text has this:
The inventor has established a rapid screening assay for analysing the immune-enhancing activities of various lectin-interactive agents. The assay is based on the ability to grow lymphocytes derived from the spleens of vaccinated mice in mixed lymphocyte culture (MLC) in the presence or absence of the agents. The theory behind this approach is that tumour cells secrete galectins which then kill the T lymphocytes.
Tumour cells, either NeuD12 FVB/N 202 breast cancer cells or C57bl6J derived B16F10 melanoma cells were used as stimulators and target cells for the assays. The tumour cells used as stimulators in the MLC were prepared as outlined in WO 01/88097 to express high levels of B7 antigen and were treated with interferon γ (1000 IU/mL) for 24 h before addition of interferon β (1000 IU/mL) for a further 24-48 h. The tumour cells were grown in 35 mm diameter×6 well cell culture dishes at about 1.5×10^6 cells per well. The tumour cells, after IFN treatment, were incubated with the growth arresting drug, mitomycin C for 20-25 min in situ in the 6-well culture dishes before it was removed by washing with PBS or fresh media three times and resuspension in 4 mL of fresh complete RPMI media/10% FCS.
Lymphocytes were extracted from the spleen of vaccinated mice and passed through a 100-200 μm stainless steel mesh sieve into 5-10 mL complete RPMI media. The red blood cells were removed by centrifugation on lymphoprep and the white blood cell layer at the interface between the culture media phase and ficoll/Hypaque phase was harvested and the ficoll/Hypaque removed by washing. […] After 2-3 days, or as required (assessed by the colour of the media pH indicator change), half the media was carefully aspirated away from each well and replaced with fresh complete media with or without added lectin-interacting agent (e.g., a carbohydrate as disclosed for instance herein generally at about 0.1 mM to about 10 mM final concentration, typically at about 1 mM). […]

Structures are written as SMILES.

In the case of `OC[C@H]1O[C@@H](O[C@@H]2[C@@H](CO)OC(O)(CO)[C@H]2O)[C@H](O)[C@@H](O)[C@H]1O` (mixture of isomers) [lactulose], the “proliferation of lymphocytes in a melanoma-specific MLC” value (shortened to “proliferation of lymphocytes”) is “promoting the proliferation of lymphocytes”. With `OC[C@@H](O)[C@@H](O[C@@H]1O[C@H](CO)[C@H](O)[C@H](O)[C@H]1O)[C@H](O)[C@@H](O)CO` [D-lactitol monohydrate], the “proliferation of lymphocytes” value was “promoting the proliferation of lymphocytes”.

For `OC[C@H]1O[C@@H](O[C@H]2[C@H](O)[C@@H](O)[C@H](OCc3ccccc3)O[C@@H]2CO)[C@H](O)[C@@H](O)[C@H]1O` [benzyl 4-O-β-D-galactopyranosyl-β-D-glucopyranoside], the “proliferation of lymphocytes” value is given as “promoting the proliferation of lymphocytes”.

The values above are taken from US9770503B2, “Immunomodulating compositions and uses therefor” (CANCURE LIMITED ACN 164 438 359, priority 2003, dated 2017).
